{"source": "patent US4247535A", "about": "“Modified cyclodextrin sulfate salts as complement inhibitors” (American Cyanamid Company, priority 1979, dated 1981)", "key": {"[1]": {"biological_target": "activated human C1 (Homo sapiens, UniProt P09871)", "sequence (P09871 16-688)": "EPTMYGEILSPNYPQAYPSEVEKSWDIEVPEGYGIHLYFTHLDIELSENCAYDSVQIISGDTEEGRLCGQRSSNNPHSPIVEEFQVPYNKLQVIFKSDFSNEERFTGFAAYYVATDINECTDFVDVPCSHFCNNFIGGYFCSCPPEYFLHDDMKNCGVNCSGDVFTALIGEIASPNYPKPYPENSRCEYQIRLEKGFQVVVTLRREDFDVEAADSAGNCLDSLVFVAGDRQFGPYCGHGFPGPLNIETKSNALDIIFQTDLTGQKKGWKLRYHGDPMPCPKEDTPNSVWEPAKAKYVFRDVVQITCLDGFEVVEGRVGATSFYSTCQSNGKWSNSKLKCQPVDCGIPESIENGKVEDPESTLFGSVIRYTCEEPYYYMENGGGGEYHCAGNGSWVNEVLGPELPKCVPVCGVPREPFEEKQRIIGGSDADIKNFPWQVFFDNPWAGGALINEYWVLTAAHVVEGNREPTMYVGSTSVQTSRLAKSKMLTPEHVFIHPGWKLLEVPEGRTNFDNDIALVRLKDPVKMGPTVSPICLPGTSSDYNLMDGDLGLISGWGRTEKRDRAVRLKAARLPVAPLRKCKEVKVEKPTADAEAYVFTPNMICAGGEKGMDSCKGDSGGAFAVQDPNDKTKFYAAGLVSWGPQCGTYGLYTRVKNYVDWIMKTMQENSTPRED", "sequence (P00736 18-705 partner)": "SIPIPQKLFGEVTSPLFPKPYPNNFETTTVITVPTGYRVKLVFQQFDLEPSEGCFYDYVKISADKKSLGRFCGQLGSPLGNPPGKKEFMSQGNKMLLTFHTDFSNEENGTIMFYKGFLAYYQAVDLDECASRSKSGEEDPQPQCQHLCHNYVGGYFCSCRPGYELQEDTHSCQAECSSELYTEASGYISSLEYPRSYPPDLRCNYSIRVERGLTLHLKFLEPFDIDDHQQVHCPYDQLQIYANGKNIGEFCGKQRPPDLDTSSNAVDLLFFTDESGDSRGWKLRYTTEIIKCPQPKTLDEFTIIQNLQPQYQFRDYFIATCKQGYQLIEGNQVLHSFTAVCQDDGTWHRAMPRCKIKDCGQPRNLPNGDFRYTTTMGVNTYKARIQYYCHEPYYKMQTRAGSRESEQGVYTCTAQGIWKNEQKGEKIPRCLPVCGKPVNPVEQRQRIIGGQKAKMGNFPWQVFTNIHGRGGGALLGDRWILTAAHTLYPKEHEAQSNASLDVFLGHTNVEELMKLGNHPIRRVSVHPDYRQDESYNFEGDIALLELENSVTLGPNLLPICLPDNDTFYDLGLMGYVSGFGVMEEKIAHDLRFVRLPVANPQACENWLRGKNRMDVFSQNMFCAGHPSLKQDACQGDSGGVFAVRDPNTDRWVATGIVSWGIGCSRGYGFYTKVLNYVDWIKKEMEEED", "sequence (P02745 23-245 partner)": "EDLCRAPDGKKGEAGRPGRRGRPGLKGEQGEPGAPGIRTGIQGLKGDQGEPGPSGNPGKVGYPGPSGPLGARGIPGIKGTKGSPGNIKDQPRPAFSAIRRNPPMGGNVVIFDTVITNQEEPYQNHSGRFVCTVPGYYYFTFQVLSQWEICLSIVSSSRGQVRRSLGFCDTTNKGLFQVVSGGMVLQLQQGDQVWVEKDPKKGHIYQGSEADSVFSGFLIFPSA", "sequence (P02746 28-253 partner)": "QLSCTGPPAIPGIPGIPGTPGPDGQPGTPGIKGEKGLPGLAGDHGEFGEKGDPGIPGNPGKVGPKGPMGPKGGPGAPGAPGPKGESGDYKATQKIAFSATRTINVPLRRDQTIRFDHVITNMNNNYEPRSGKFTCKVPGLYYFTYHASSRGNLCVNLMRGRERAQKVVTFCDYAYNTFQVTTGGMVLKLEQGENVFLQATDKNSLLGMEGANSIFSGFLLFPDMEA", "sequence (P02747 29-245 partner)": "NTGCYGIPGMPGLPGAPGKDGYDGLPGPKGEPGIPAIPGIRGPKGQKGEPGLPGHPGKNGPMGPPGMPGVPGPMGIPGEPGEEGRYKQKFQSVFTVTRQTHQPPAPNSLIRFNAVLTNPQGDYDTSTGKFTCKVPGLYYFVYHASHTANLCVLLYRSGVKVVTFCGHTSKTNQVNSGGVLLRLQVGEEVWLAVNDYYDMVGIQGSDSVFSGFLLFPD", "assay": "Test Code 026 (C1 inhibitor)", "assay_type": "biochemical", "conditions": "activity in wells, twofold serial dilution assay; higher well number = higher activity", "text": "(§1) An active inhibitor protects C2 from C1 and C4; (ii) Test Code 035 (C3-C9 inhibitor)--This test determines the ability of the late components of human complement (C3-C9) to lyse EAC 142 in the presence of appropriate dilutions of the test compound. An active inhibitor protects EAC 142 from lysis by human C3-C9; (iii) Test Code 036 (C-Shunt inhibitor)--In this test human erythrocytes rendered fragile are lysed in autologous serum via the shunt pathway activated by cobra venom factor in the presence of appropriate dilutions of the test compound. Inhibition of the shunt pathway results in failure of lysis; (iv) Forssman Vasculitis Test--Here, the well known complement dependent lesion, Forssman vasculitis, is produced in guinea pigs by intradermal injection of rabbit anti-Forssman antiserum. […]"}, "[2]": {"test_system": "late components of human complement (C3-C9)", "assay": "Test Code 035 (C3-C9 inhibitor), lysis of EAC 142", "assay_type": "biochemical", "conditions": "activity in wells, twofold serial dilution assay; higher well number = higher activity", "text": "as §1"}, "[3]": {"test_system": "shunt pathway", "assay": "Test Code 036 (C-Shunt inhibitor), lysis of fragile human erythrocytes in autologous serum, cobra venom factor", "assay_type": "cell-based", "conditions": "activity in wells, twofold serial dilution assay; higher well number = higher activity", "text": "as §1"}, "[4]": {"test_system": "whole complement", "assay": "Complement Level Reduction Test (in vivo, capillary tube assay of serum)", "conditions": "200 mg/kg i.v. or i.p.", "text": "An active inhibitor protects C2 from C1 and C4; (ii) Test Code 035 (C3-C9 inhibitor)--This test determines the ability of the late components of human complement (C3-C9) to lyse EAC 142 in the presence of appropriate dilutions of the test compound. An active inhibitor protects EAC 142 from lysis by human C3-C9; (iii) Test Code 036 (C-Shunt inhibitor)--In this test human erythrocytes rendered fragile are lysed in autologous serum via the shunt pathway activated by cobra venom factor in the presence of appropriate dilutions of the test compound. Inhibition of the shunt pathway results in failure of lysis; (iv) Forssman Vasculitis Test--Here, the well known complement dependent lesion, Forssman vasculitis, is produced in guinea pigs by intradermal injection of rabbit anti-Forssman antiserum. The lesion is measured in terms of diameter, edema and hemorrhage and the extent to which a combined index of these is inhibited by prior intraperitoneal injection of the test compound at 200 mg/kg is then reported, unless otherwise stated; (v) Forssman Shock Test--Lethal shock is produced in guinea pigs by an i.v. injection of anti-Forssman antiserum and the harmonic mean death time of treated guinea pigs is compared with that of simultaneous controls; (vi) Complement Level Reduction Test--In this test, the above dosed guinea pigs, or others, are bled for serum and the complement level is determined in undiluted serum by the capillary tube method of U.S. Pat. No. 3,876,376 and compared to undosed control guinea pigs; and (vii) Cap 50 Test--Here, appropriate amounts of the test compound are added to a pool of guinea pig serum in vitro, after which the undiluted serum capillary tube assay referred to above is run. The concentration of compound inhibiting 50% is reported.\nWith reference to Table I, guinea pigs weighing about 300 g were dosed intravenously (i.v.) or intraperitoneally (i.p.) with 200 mg/kg of the test compound dissolved in saline and adjusted to pH 7-8. […] Percent inhibition was calculated by comparison with simultaneous controls. […]"}, "[5]": {"test_system": "complement system", "conditions": "reported, British Journal of Experimental Pathology, 33, 327-339 (1952); cited from earlier work"}, "[6]": {"test_system": "hereditary angioneurotic edema", "conditions": "reported in the literature; cited from earlier work"}, "[7]": {"test_system": "human serum", "conditions": "both in vitro and in vivo, judged by reduction in total hemolytic complement activity; cited from earlier work"}}, "note": "Counter-ions that a name gives are not always drawn.", "data": [{"compound": "O=C(O)[C@H]1O[C@@H]2O[C@H]3[C@H](OS(=O)(=O)O)[C@@H](OS(=O)(=O)O)[C@@H](O[C@H]4[C@H](OS(=O)(=O)O)[C@@H](OS(=O)(=O)O)[C@@H](O[C@H]5[C@H](OS(=O)(=O)O)[C@@H](OS(=O)(=O)O)[C@@H](O[C@H]6[C@H](OS(=O)(=O)O)[C@@H](OS(=O)(=O)O)[C@@H](O[C@H]7[C@H](OS(=O)(=O)O)[C@@H](OS(=O)(=O)O)[C@@H](O[C@H]8[C@H](OS(=O)(=O)O)[C@@H](OS(=O)(=O)O)[C@@H](O[C@H]1[C@H](OS(=O)(=O)O)[C@H]2OS(=O)(=O)O)O[C@@H]8C(=O)O)O[C@@H]7C(=O)O)O[C@@H]6C(=O)O)O[C@@H]5C(=O)O)O[C@@H]4C(=O)O)O[C@@H]3C(=O)O", "note": "[5,5',5\",5'\",5\"\",5'\"\",5\"\"\"-Heptacarboxy-6,6',6\",6'\",6\"\",6'\"\",6\"\"\"-heptademethyl-β-cyclodextrin, heptasodium salt, tetradecakis (H-sulfate), tetradecasodium salt]", "values": [{"measurement": "026 In Vitro Activity", "setting": "[1]", "result": "+7 wells"}, {"measurement": "035 In Vitro Activity", "setting": "[2]", "result": "+1 wells"}, {"measurement": "036 In Vitro Activity", "setting": "[3]", "result": "+3 wells"}, {"measurement": "In Vivo Activity (Guinea Pig) % Inhibition 30 min.", "setting": "[4]; 30 min.", "result": -18, "unit": "%"}, {"measurement": "In Vivo Activity (Guinea Pig) % Inhibition 60 min.", "setting": "[4]; 60 min.", "result": "+14%"}, {"measurement": "In Vivo Activity (Guinea Pig) % Inhibition 120 min.", "setting": "[4]; 120 min.", "result": -40, "unit": "%"}]}, {"compound": "O=C(O)[C@H]1O[C@@H]2O[C@H]3[C@H](O)[C@@H](O)[C@@H](O[C@H]4[C@H](O)[C@@H](O)[C@@H](O[C@H]5[C@H](O)[C@@H](O)[C@@H](O[C@H]6[C@H](O)[C@@H](O)[C@@H](O[C@H]7[C@H](O)[C@@H](O)[C@@H](O[C@H]8[C@H](O)[C@@H](O)[C@@H](O[C@H]1[C@H](O)[C@H]2O)O[C@@H]8C(=O)O)O[C@@H]7C(=O)O)O[C@@H]6C(=O)O)O[C@@H]5C(=O)O)O[C@@H]4C(=O)O)O[C@@H]3C(=O)O", "note": "[5,5',5\",5'\",5\"\",5'\"\",5\"\"\"-Heptacarboxy-6,6',6\",6'\",6\"\",6'\"\",] [5,5',5\",5'\",5\"\",5'\"\",5\"\"\"-Heptacarboxy-6,6',6\",6'\",6\"\",6'\"\",6\"\"\"-heptademethyl-β-cyclodextrin]", "values": [{"measurement": "035 In Vitro Activity", "setting": "[2]", "result": "N"}]}, {"compound": "Nc1ccc2cc(S(=O)(=O)O)cc(O)c2c1N=Nc1ccc(NC(=O)Nc2ccc(N=Nc3c(N)ccc4cc(S(=O)(=O)O)cc(O)c34)c(S(=O)(=O)O)c2)cc1S(=O)(=O)O", "note": "[chlorazol fast pink, 3,3'-ureylenebis-[6-(2-amino-8-hydroxy-6-sulfo-1-naphthylazo)]benzenesulfonic acid, tetrasodium salt]", "values": [{"measurement": "anticomplementary effect", "setting": "[5]", "result": "anticomplementary effect"}]}, {"compound": "NCCCCCC(=O)O", "note": "[epsilon-aminocaproic acid]", "values": [{"measurement": "treatment of hereditary angioneurotic edema", "setting": "[6]", "result": "used with success"}]}, {"compound": "NC[C@H]1CC[C@H](C(=O)O)CC1", "note": "[tranexamic acid]", "values": [{"measurement": "treatment of hereditary angioneurotic edema", "setting": "[6]", "result": "used with success"}]}, {"compound": "heparin", "values": [{"measurement": "anticomplementary effect", "setting": "[5]", "result": "anticomplementary effect"}]}, {"compound": "pentosan-polysulfoester", "values": [{"measurement": "anticomplementary activity on human serum", "setting": "[7]", "result": "anticomplementary activity"}]}]}
